Tests used:
[1] = Serum enzymes, bilirubin and creatinine in rats; assay type: in vivo, Rat, male, strain: HOE WISKf (SPF 71)
Description: (§1) Male rats with an initial weight above 180 g received the test product of the formula I in polyethylene glycol 400 by gavage once a day (in the morning) (0.5 ml/100 g of body weight); the relevant control group received only the same amount of solvent. The last (7th) administration took place 24 hours before blood sampling and sacrifice. There was free access to feed and water during the test. Feed was withdrawn 24 hours before the retroorbital blood sampling, which took place under light ether anesthesia before and after the treatment period (that is to say on the 1st and 8th day). Serum glutamic-oxalate transaminase (SGOT), serum glutamic-pyruvic transaminase (SGPT), alkaline phosphatase (aP), bilirubin and creatinine were determined in the serum of each individual animal. The total glycerol was measured from the pooled serum of all animals in a group as measure of the triglycerides (Eggstein, M. Kreutz, F. H.: Klin. Wschr. 44, 262 and 267 (1966); Wahlefeld, A. W., in: H. O. Bergmeier: Methoden der enzymatischen Analyse (Methods of enzymatic analysis), 2nd Edition, Volume II, Verlag Chemie 1974, Page 1878). Immediately after the blood sampling the animals were sacrificed by distortion of the spinal column. The livers were removed, and the relative liver weight was determined. In addition, the body weight gain and the feed consumption were investigated. The statistical analysis was carried out by Student's t test.

serum lipoproteins = assay: Lipoprotein fractionation by ultracentrifugation in rats (serum cholesterol, protein, triglycerides; hypolipemic effect); assay type: in vivo, Rat, male, strain: HOE WISKf (SPF 71)
Description: as §1, with “The total glycerol was measured from the pooled serum of all animals in a group as measure of the triglycerides (Eggstein, M. Kreutz, F. H.: Klin. Wschr. 44, 262 and 267 (1966); Wahlefeld, A. W., in: H. O. Bergmeier: Methoden der enzymatischen Analyse (Methods of enzymatic analysis), 2nd Edition, Volume II, Verlag Chemie 1974, Page 1878).” left out
To analyze the serum lipoproteins, after the treatment period the serum of all rats in a group was pooled.

HEP-G2 cells = assay: Integrity of the cell culture / cell damage (light microscopy, lactic dehydrogenase release); assay type: cell-based
Description: Monolayers of HEP-G2 cells in liproprotein-free nutrient medium are preincubated with appropriate concentrations of the substances of the formula I to be tested for one hour. After addition of the […] biosynthesis precursor sodium (^14 C)acetate the incubation is continued for 3 hours. After this a portion of the cells is subjected to alkaline hydrolysis after addition of an internal standard of ^3 H-cholesterol. The lipids from the hydrolyzed cells are extracted with a chloroform/methanol mixture. This lipid mixture is, after addition of carrier cholesterol, fractionated by preparative thin-layer chromatography, the cholesterol band is stained and then isolated, and the amount of ^14 C-cholesterol formed from the ^14 C-precursor is determined by scintigraphy. Cellular protein was determined in an aliquot of the cells so that the amount of ^14 C-cholesterol formed from ^14 C-precursor per mg of cellular protein per unit time can be calculated. […] The integrity of the cell culture and the absence of cell damage owing to exposure to the product is assessed morphologically (light microscopy) and measured biochemically by determining the lactic dehydrogenase release into the incubation medium on aliquots of the cell culture.

[2] = system: cholesterol biosynthesis in HEP-G2 cells; assay: Cholesterol biosynthesis inhibition in HEP-G2 liver cell cultures (14C-acetate); assay type: cell-based; conditions: Homo sapiens, HepG2, 1 h preincubation, 3 h with (14C)acetate, read-out: inhibits biosynthesis by 50% at
Description: Monolayers of HEP-G2 cells in liproprotein-free nutrient medium are preincubated with appropriate concentrations of the substances of the formula I to be tested for one hour. After addition of the […] biosynthesis precursor sodium (^14 C)acetate the incubation is continued for 3 hours. After this a portion of the cells is subjected to alkaline hydrolysis after addition of an internal standard of ^3 H-cholesterol. The lipids from the hydrolyzed cells are extracted with a chloroform/methanol mixture. This lipid mixture is, after addition of carrier cholesterol, fractionated by preparative thin-layer chromatography, the cholesterol band is stained and then isolated, and the amount of ^14 C-cholesterol formed from the ^14 C-precursor is determined by scintigraphy. Cellular protein was determined in an aliquot of the cells so that the amount of ^14 C-cholesterol formed from ^14 C-precursor per mg of cellular protein per unit time can be calculated. The control is used for comparison for the inhibitory effect of an added test product so that it is possible to state directly the inhibition of the cholesterol biosynthesis at a particular molar concentration of the test product in the medium. The integrity of the cell culture and the absence of cell damage owing to exposure to the product is assessed morphologically (light microscopy) and measured biochemically by determining the lactic dehydrogenase release into the incubation medium on aliquots of the cell culture.

[3] = Body weight, relative liver weight and feed consumption in rats; assay type: in vivo, Rat, male, strain: HOE WISKf (SPF 71); conditions: 15 mg/kg/day, male rat, after treatment
Description: as §1

[4] = 15 mg/kg/day, male rat, after treatment (8th day)
[5] = 15 mg/kg/day, male rat, before treatment (1st day)
[6] = 15 mg/kg/day, male rat, by gavage, 7 administrations

Structure (SMILES): CC1CC(O)C=CC(O)C(O)CC(=O)O1 (stereo not shown)
- Bilirubin, Final, mean [1, 4]: 2.0 µmol/L
- Creatinine, Final, mean [1, 4]: 64 µmol/L
- Serum enzymes SGOT, Final, mean [1, 4]: 56 U/L
- Serum enzymes SGPT, Final, mean [1, 4]: 25 U/L
- Serum enzymes aP, Final, mean [1, 4]: 247 U/L
- Bilirubin, Initial, mean [1, 5]: 2.8 µmol/L
- Creatinine, Initial, mean [1, 5]: 67 µmol/L
- Serum enzymes SGOT, Initial, mean [1, 5]: 41 U/L
- Serum enzymes SGPT, Initial, mean [1, 5]: 29 U/L
- Serum enzymes aP, Initial, mean [1, 5]: 359 U/L
- tolerability parameters: SGOT, SGPT, aP, serum bilirubin and serum creatinine ([1]; rat): not pathologically changed
- % Change compared with control, Protein LDL (serum lipoproteins; [6]): -20%
- % Change compared with control, Protein VLDL (serum lipoproteins; [6]): -12%
- % Change compared with control, Total cholesterol HDL (serum lipoproteins; [6]): -13%
- % Change compared with control, Total cholesterol LDL (serum lipoproteins; [6]): -31%
- % Change compared with control, Total cholesterol VLDL (serum lipoproteins; [6]): -40%
- % Change compared with control, Triglycerides VLDL (serum lipoproteins; [6]): -22%
- Cholesterol HDL/LDL Based on control (serum lipoproteins; 15 mg/kg/day, male rat, by gavage, control 1.00): 1.26
- Cholesterol HDL/LDL (serum lipoproteins; 15 mg/kg/day, male rat, by gavage, control 3.75): 4.74
- reduction in the triglycerides (mainly transported in the VLDL) (serum lipoproteins; rat): distinct reduction
- vasoprotective index HDL-cholesterol: LDL-cholesterol (serum lipoproteins; rat): significant increase
- reduction in the atherogenic serum lipoproteins LDL and VLDL (cholesterol content) (serum lipoproteins; rat, at one seventh of the dose of clofibrate, compared with clofibrate): equally great reduction
- reduction in the HDL fraction (serum lipoproteins; rat, compared with clofibrate): only half as large
- vasoprotective index HDL-cholesterol: LDL-cholesterol compared with clofibrate (serum lipoproteins; rat, compared with clofibrate): distinctly higher than with clofibrate
- cell culture damage (HEP-G2 cells): not damaged
- IC50 [2]: 100 nM
- % Change from control, Body weight after [3]: -3%
- % Change from control, rel. feed consumption after [3]: -1%

From patent US5200424A, “Use of 10-membered ring lactones as lipid regulators” (priority 1990, dated 1993)
